Results taken from patent US10479780B2, “Aminopyrazole derivatives” (Chugai Seiyaku Kabushiki Kaisha, priority 2015, dated 2019).

Assays:
Type in all cases: biochemical
human Yes1 enzyme = target: T1, human Yes1 enzyme (Homo sapiens, UniProt P07947); test: Yes1 enzyme inhibitory activity (time-resolved fluorometry, biotinylated peptide phosphorylation); details: biotinylated peptide phosphorylation, read-out: YES_IC50
T1 construct: made in house
Procedure, shortened: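 Inhibition was expressed against a compound-free control to give IC50, using TR-FRET read-out (Eu-cryptate anti-pTyr antibody, streptavidin-XL665).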

human Src enzyme = target: T2, human Src enzyme (Homo sapiens, UniProt P12931); test: Src enzyme inhibitory activity (time-resolved fluorometry, biotinylated peptide phosphorylation); details: biotinylated peptide phosphorylation, read-out: SRC_IC50
T2 construct: purchased Carna Biosciences, Inc. 08-173
T2 sequence (P12931 whole entry): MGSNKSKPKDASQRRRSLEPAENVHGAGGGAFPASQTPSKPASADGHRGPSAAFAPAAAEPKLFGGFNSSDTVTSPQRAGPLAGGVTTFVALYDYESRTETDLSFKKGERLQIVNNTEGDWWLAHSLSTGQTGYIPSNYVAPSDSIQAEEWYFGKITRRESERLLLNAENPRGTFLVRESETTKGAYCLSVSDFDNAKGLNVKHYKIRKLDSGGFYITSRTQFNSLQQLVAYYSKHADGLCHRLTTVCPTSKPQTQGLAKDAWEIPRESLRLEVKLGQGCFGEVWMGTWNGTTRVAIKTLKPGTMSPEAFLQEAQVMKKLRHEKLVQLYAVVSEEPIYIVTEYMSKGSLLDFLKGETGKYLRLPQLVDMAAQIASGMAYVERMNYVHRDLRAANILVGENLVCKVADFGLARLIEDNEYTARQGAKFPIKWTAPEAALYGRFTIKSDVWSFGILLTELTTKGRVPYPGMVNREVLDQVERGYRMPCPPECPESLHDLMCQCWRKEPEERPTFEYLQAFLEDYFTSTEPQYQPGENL
Procedure, shortened: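 Compounds were tested for blocking tyrosine phosphorylation of a biotinylated peptide substrate by recombinant human Src. Phosphorylated product was quantified by time-resolved fluorometry using europium cryptate and XL665 conjugates, and IC50 was calculated against the compound-free control.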

human Lck enzyme = target: T3, human Lck enzyme (Homo sapiens, UniProt P06239); test: Lck enzyme inhibitory activity (time-resolved fluorometry, biotinylated peptide phosphorylation); details: biotinylated peptide phosphorylation, read-out: LCK_IC50
T3 construct: purchased Carna Biosciences, Inc. 08-170
T3 sequence (P06239 whole entry): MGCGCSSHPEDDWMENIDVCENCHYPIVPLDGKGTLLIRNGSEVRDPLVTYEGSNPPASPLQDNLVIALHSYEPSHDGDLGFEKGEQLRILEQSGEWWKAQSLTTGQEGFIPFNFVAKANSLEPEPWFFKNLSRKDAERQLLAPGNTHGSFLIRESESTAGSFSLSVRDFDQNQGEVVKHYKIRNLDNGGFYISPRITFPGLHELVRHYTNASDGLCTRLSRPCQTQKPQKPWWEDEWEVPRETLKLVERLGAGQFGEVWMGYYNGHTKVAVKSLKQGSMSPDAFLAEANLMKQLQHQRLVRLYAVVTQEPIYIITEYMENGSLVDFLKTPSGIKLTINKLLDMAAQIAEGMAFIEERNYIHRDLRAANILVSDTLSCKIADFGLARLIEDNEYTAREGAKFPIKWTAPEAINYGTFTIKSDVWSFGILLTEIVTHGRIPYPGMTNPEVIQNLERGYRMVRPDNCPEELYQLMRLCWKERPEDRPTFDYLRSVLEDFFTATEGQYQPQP
Procedure, shortened: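 Readout pairs a europium cryptate-labelled anti-phosphotyrosine antibody with XL665-streptavidin, measured by time-resolved fluorescence. IC50 derived from percent inhibition against untreated controls.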

T1 sequence (P07947 whole entry): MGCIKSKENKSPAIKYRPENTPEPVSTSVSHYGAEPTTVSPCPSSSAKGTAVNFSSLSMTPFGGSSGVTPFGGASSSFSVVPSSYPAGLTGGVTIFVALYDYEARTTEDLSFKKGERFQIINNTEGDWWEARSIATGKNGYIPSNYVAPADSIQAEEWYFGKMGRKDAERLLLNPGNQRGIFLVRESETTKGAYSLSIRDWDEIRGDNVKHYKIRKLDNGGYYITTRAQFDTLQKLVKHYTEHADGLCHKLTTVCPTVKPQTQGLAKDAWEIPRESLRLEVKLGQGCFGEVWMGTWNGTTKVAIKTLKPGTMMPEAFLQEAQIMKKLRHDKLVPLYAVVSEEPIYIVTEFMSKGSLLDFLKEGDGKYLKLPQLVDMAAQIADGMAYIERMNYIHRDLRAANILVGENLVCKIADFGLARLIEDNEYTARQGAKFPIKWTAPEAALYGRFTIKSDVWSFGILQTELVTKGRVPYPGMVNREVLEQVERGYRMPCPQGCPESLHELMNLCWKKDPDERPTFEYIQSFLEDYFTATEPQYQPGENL

| IC50 (human Yes1 enzyme) [nM] | IC50 (human Src enzyme) [nM] | IC50 (human Lck enzyme) [nM] | Structure (SMILES) |
| --- | --- | --- | --- |
| 4.3 | 650 | 46 | Cc1cc(Oc2c(F)cccc2F)ncc1-n1ncc(C(=O)c2cc3cc(OCC(F)F)c(NS(=O)(=O)c4cncc(Cl)c4)cc3[nH]2)c1N [Example 5-1-575, N-[2-[5-amino-1-[6-(2,6-difluorophenoxy)-4-methylpyridin-3-yl]pyrazole-4-carbonyl]-5-(2,2-difluoroethoxy)-1H-indol-6-yl]-5-chloropyridine-3-sulfonamide] |
| 3.1 | 470 | 14 | Cc1cc(Oc2c(F)cccc2F)ncc1-n1ncc(C(=O)c2cc3cc(OCC(F)F)c(NS(=O)(=O)c4cncc(F)c4)cc3[nH]2)c1N [Example 5-1-576, N-[2-[5-amino-1-[6-(2,6-difluorophenoxy)-4-methylpyridin-3-yl]pyrazole-4-carbonyl]-5-(2,2-difluoroethoxy)-1H-indol-6-yl]-5-fluoropyridine-3-sulfonamide] |
| 6.6 | 1100 | 380 | Cc1cc2cc(C(=O)c3cnn(-c4cnc(Oc5ccccc5F)cc4C)c3N)[nH]c2cc1NS(=O)(=O)c1cnc(N(C)C)nc1 [Example 5-1-577, N-[2-[5-amino-1-[6-(2-fluorophenoxy)-4-methylpyridin-3-yl]pyrazole-4-carbonyl]-5-methyl-1H-indol-6-yl]-2-(dimethylamino) pyrimidine-5-sulfonamide] |
